What all share (type): in vivo, BALB/c nude mice
Assay [1] concerns 4T1 cells, breast cancer cells. Put plainly: Tumor volume in 4T1 tumor-bearing mice. Particulars: day 18 of administration; intraperitoneal; MET 250, 2DG 500, IP6 500, Ins 500 mg/kg (four-combination: IP6 250 + Ins 250 mg/kg); control 1486.8±67.0; mean±SD. As to the method:
(§1) Five-week-old, female specific pathogen free BALB/c nude mice were purchased and used from Orient Bio Co., Ltd. After quarantine and adaptation for one week, healthy animals without weight loss were selected and used in the test. The test animals were raised in a breeding environment set at a temperature of 23±3° C., a relative humidity of 50±10%, the ventilation number of 10 to 15 times/hour, lighting time of 12 hours (08:00 to 20:00), and illuminance of 150 to 300 Lux. During a pre-test period, the test animals were allowed to freely consume solid feed for the test animals (Cargill Agripurina Co., Ltd.) and drinking water.
(§2) After an adaptation period for one week, in BALB/c nude mice, 4T1 cells (1×10 ^5 cells/mouse), breast cancer cells, were injected to the left breast adipose tissues of the test animals, and then the tumor tissues were visually observed. When the tumor tissue size of the test animals was about 100 mm ^3, the test animals were divided into 9 test groups based on a randomized block design. That is, the 9 test groups were classified into a control group, a MET group (MET 250 mg/kg), a 2DG group (2DG 500 mg/kg), an Ins group (Ins 500 mg/kg), a IP6 group (IP6 500 mg/kg), a MET+2DG group (MET 250 mg/kg+2DG 500 mg/kg), a MET+2DG+Ins group (MET 250 mg/kg+2DG 500 mg/kg+Ins 500 mg/kg), a MET+2DG+IP6 group (MET 250 mg/kg+2DG 500 mg/kg+IP6 500 mg/kg), a MET+2DG+IP6+Ins group (MET 250 mg/kg+2DG 500 mg/kg+IP6 250 mg/kg+Ins 250 mg/kg), and each test group used 10 test animals. The test substance was dissolved in distilled water and intraperitoneally administered at fixed time for 18 days.
The body weight of the test animal during the test period was measured at a fixed time once a week from the test substance administration date. A tumor volume was measured by using a digital caliper every three days, the length and width of the tumor were measured, and the tumor volume was calculated by substituting the following Equation. Tumor volume (mm^3)=(width^2×length)/2

Assay [2] deals with 4T1 cells, breast cancer cells. The experiment in a line: Tumor weight in 4T1 tumor-bearing mice. Particulars: day 19 of administration; intraperitoneal; MET 250, 2DG 500, IP6 500, Ins 500 mg/kg (four-combination: IP6 250 + Ins 250 mg/kg); control 1.244±0.22; mean±SD. As to the method:
as §1, §2
[…] The blood was placed in a serum separate tube (Becton Dickinson) and left at room temperature for 30 minutes and centrifuged at 3,000 rpm for 20 minutes to isolate serum and the isolated serum was stored at −70° C. until analysis. […] Tumors were weighed and some were fixed in 10% neutral buffered formalin (NBF, Sigma-Aldrich Co.) and embedded in paraffin to perform tissue immunostaining. The lung was fixed with a Bouin's solution (Sigma-Aldrich Co.), and the tumor nodule metastasized to the lung was observed and a lung metastasis rate was examined.

Assay [3] deals with 4T1 cells, breast cancer cells. Put plainly: Incidence of lung metastasis in 4T1 tumor animal model. The note with it: 10 animals per group; intraperitoneal; control 100%. As to the method: as §1, §2
After 14 days of administration of the test substance, the test animals were anesthetized using an anesthetic made by diluting tribromoethanol with tert-amyl alcohol and the blood was collected from the orbit. The blood was placed in a serum separate tube (Becton Dickinson) and left at room temperature for 30 minutes and centrifuged at 3,000 rpm for 20 minutes to isolate serum and the isolated serum was stored at −70° C. until analysis. After taking the blood from the test animals, the tumor was extracted and weighed. Tumors were weighed and some were fixed in 10% neutral buffered formalin (NBF, Sigma-Aldrich Co.) and embedded in paraffin to perform tissue immunostaining. The lung was fixed with a Bouin's solution (Sigma-Aldrich Co.), and the tumor nodule metastasized to the lung was observed and a lung metastasis rate was examined.

Counter-ions that a name gives are not always drawn.

With `O=P(O)(O)O[C@H]1[C@H](OP(=O)(O)O)[C@@H](OP(=O)(O)O)[C@H](OP(=O)(O)O)[C@@H](OP(=O)(O)O)[C@H]1OP(=O)(O)O` [IP6, inositol hexaphosphate], the tumor volume in assay [1] turned out to be 1108.5±66.3 mm^3. In addition, in assay [2], the tumor weight worked out at 0.874 ± 0.18 g. The “incidence of lung metastasis” value in assay [3] is 90%.

For `OCC1O[C@H](O)C[C@@H](O)[C@@H]1O` (mixture of isomers) [2DG, 2-deoxy-D-glucose], the tumor volume in assay [1] worked out at 1350.3±55.2 mm^3. Moreover, in assay [2], the tumor weight is 1.092 ± 0.18 g. In addition, the “incidence of lung metastasis” value in assay [3] is given as 100%.

In the case of `O[C@H]1[C@H](O)[C@@H](O)[C@H](O)[C@@H](O)[C@H]1O` [Ins, myo-inositol], the tumor volume in assay [1] is recorded as 1190.1±67.3 mm^3. Further, in assay [2], the tumor weight was found to be 0.904 ± 0.20 g. Further, the “incidence of lung metastasis” value in assay [3] came out at 90%.

As to `CN(C)C(=N)NC(=N)N` [MET, Metformin HCl], the tumor volume in assay [1] is recorded as 1400.5±58.6 mm^3. Moreover, the tumor weight in assay [2] amounted to 1.134 ± 0.15 g. Besides, the “incidence of lung metastasis” value in assay [3] was 100%.

For the origin of these results see patent publication US12370155B2, “Anticancer composition” (NOAHM INC., priority 2018, dated 2025).
